Where two headings read alike, the source gives them in different places.
Key:
female CD-1 mice [1] = settings: for BALF Protein Concentration Mean / BALF Protein Conc. Mean / Total Neutrophil Count per Lavage, Mean: group mean
Procedure: The protocols obtained 30 or 18 female CD-1 mice (Charles River Lab) and monitored daily for body condition and health status during the 3-5 days acclimation period.
At time 0, the mice were weighed. LPS was prepared 1 mg LPS in 1 ml phosphate buffered saline (PBS) to get a final concentration of 1 mg/mL. Dosed 50 μl intratracheally to the mice at time 0. For the N=30 or 18 mice in an incubator, temperature was set to achieve a core temperature of 39° C. as measured by a calibrated thermometer inserted through the top lid of the incubator with the bulb at the level of the mouse cages in the incubator (set temperature knob at 36.7° C.). In addition, a rectal probe to confirmed core temperature in the mice (check right before sacrifice at 24 h post LPS). All mice were given access to food and water at all time. Treatment was initiated three days prior to LPS dosing.
For anesthesia and LPS Dosing, mice were placed in a bell jar, with isoflurane-soaked gauze separated from the mouse by a screen and keep within a scrubber (so the operator isn't anesthetized). Monitored respiratory rate of each mouse and when reduced by half (usually within 5 seconds of going down), then take the mouse out. Each mouse was suspended from incisors across a string tied between two screws on a Plexiglas board and kept at about 70 degrees. Using blunt forceps, grabbed the tongue and hold extended, then instill 50 μL of the LPS solution into the oropharynx using a PennCentury needle/areosolizer. […] Mouse kept in this position for 5-10 seconds to allow distribution of the LPS, then returned to their cage.
Bronchoalveolar lavage fluid (BALF) was collected using rounded tip scissors make a vertical incision though skin but not peritoneum from the lower abdomen up to the jaw. Using two forceps grabbed the edge of the skin and pull apart to get wide exposure to underlying peritoneum and thoracic connective tissue/muscle. Using forceps, picked up peritoneum near the mid abdomen and with rounded tip scissors made a small incision in the peritoneum (avoid cutting gut). Then, while holding the upper edge of the peritoneum, used the rounded tip scissors to extend the incision diagonally to the left upper and right upper quadrants. Moved the liver and intestines out of the way so you can see the underside of the diaphragms. Using the rounded tip scissors, nibbled up toward the diaphragm until you can see the lungs on the other side pull away. Repeated on the other side, being careful to not nick the lungs or else you will not be able to recover lavage. Using the rounded tip scissors, cut through the diaphragm where it inserts on the anterior chest wall. Using the rounded tip scissors and taking care to avoid nicking the lung by moving it away with blunt forceps, cut through the chest wall laterally on both sides until you reach the top of the thorax, then cut across the midline at the top to remove the anterior chest wall. Using forceps pull upward on the heart and cut through at its base to remove. Using the rounded tip scissors, remove the fat pads overlying the trachea taking care not to nick the trachea. Using the rounded tip scissors inserted next to the trachea from the top of the thoracic cavity and kept next to and parallel to the trachea, make a single cut, which allowed removal of the rest of the soft tissue from the trachea but pulling over to the other side and carefully trimming to avoid nicking the trachea. Using sharp forceps carefully placed posterior to the trachea pull suture behind the trachea about 4-5 mm below the cricoid and made a very loose surgical knot (two loops around). Using ophthalmic scissors, very carefully made a cut through the anterior half of the trachea just below the cricoid. Inserted a short blunt needle into tracheal so the tip extended about 5-6 mm below the cricoid and tied a suture tightly with a second knot.

CD-1 mice = settings: for Tolerability: mouse, in vivo
female CD-1 mice [2] = system: female CD-1 mice
[3] = system: adult patients infected by SARS-CoV-19 (COVID-19); settings: oral DA 30, 60 or 100 mg/kg BID for up to ten days; paper example

## CC(=O)[O-].CC[N+](CC)(CC(=O)Nc1c(C)cccc1C)Cc1ccccc1 [DA, Denatonium acetate]
Female CD-1 mice [1]; first study, DA 3 mg/kg IV QD
  BALF Protein Concentration Mean: 0.638 mg/mL
Female CD-1 mice [1]; first study, DA 92.4 mg/kg PO BID
  BALF Protein Concentration Mean: 0.428 mg/mL
Female CD-1 mice [1]; first study, PO 92.4 mg/kg BID compared with iv 3 mg/kg QD, Table 3, FIG. 1
  Effect on BALF protein concentration, in words: Only oral administration was effective
Female CD-1 mice [1]; second study, DA 3 mg/kg IP QD
  BALF Protein Conc. Mean: 0.727 mg/mL
Female CD-1 mice [1]; second study, DA 3 mg/kg IP
  Total Neutrophil Count per Lavage, Mean: 610,900
Female CD-1 mice [1]; second study, DA 92.4 mg/kg PO BID
  BALF Protein Conc. Mean: 0.986 mg/mL
Female CD-1 mice [1]; second study, DA 92.4 mg/kg PO
  Total Neutrophil Count per Lavage, Mean: 535,080
Female CD-1 mice [1]; second study, PO 92.4 mg/kg compared with ip 3 mg/kg, Table 5, FIG. 2
  Effect on BALF total neutrophil count, in words: Only oral administration was effective
Female CD-1 mice [1]; second study, oral and IP dosing, Table 4
  Changes in BALF protein concentrations, in words: nominal (but non-significant) changes
CD-1 mice; first study, during 3 days of test article administration
  Other adverse clinical observations: No other adverse clinical observations were noted
CD-1 mice; iv, 3 mg/kg
  Tolerability: well-tolerated
CD-1 mice; po, 92.4 mg/kg
  Tolerability: well-tolerated
Female CD-1 mice [2]; mouse, in vivo
  Mice found dead on Day 1 (within 24 h after LPS instillation): one
Female CD-1 mice [2]; mouse, in vivo, ip, 3 mg/kg
  Tolerability: well-tolerated
Female CD-1 mice [2]; mouse, in vivo, po, 92.4 mg/kg
  Tolerability: well-tolerated
Female CD-1 mice [2]; second study, during 3 days of test article administration
  Other adverse clinical observations: No other adverse clinical observations were noted
[3]
  Decrease in adult respiratory distress syndrome (ARDS), including chronic pulmonary function, diffusion capacity and lung compliance: ≥ 20%
  Decrease in mortality: ~40%
  Patient tolerance: adequate patient tolerance

Reference: patent US12427125B2 (priority 2020, dated 2025)
